Experimental data from article PMC9141920, “Identification and Characterization of Dipeptidyl Peptidase-IV Inhibitory Peptides from Oat Proteins” (Foods, 2022).
Where a SMILES comes first, the peptide text is derived from it.

Test system: DPP-IV
Assay: not given
Settings: wheat-derived peptides; read-out: DPP-IV inhibition IC50; cited from earlier work

In the case of VAVPV, the IC50 is given as roughly 500 µM.

Molecular target: T1, human DPP-IV (Homo sapiens, UniProt P27487)
T1 construct: purchased Sigma-Aldrich
Assay: DPP-IV inhibitory activity assay with Gly-Pro-AMC as the substrate
Type: biochemical
Settings: 25 μM
Protocol: The DPP-IV inhibitory activity assay of the sample was performed using Gly-Pro-AMC as the substrate, as previously described. Briefly, 50 µL Gly-Pro-AMC (0.2 mM) was added to a 40 µL sample (dissolved in 100 mM HEPES buffer) and incubated for 10 min at 37 °C. The reaction was initiated by adding 10 µL DPP-IV enzyme solution (10 U/L). After being incubated for 60 min at 37 °C, the reaction was terminated by adding 100 µL sodium acetate buffer (1 M, pH 4.0). The fluorescence intensity of the mixture was measured with an excitation wavelength of 350 nm and an emission wavelength of 440 nm. The control group used the HEPES buffer instead of the sample. The blank group used the HEPES buffer instead of the sample and DPP-IV enzyme solution. The DPP-IV inhibitory activity of the sample was calculated as follows:(2) DPP-IV inhibitory activity (%)=(Ac− Ab) − (As−Ab)/(Ac−Ab)×100% where As, Ac, and Ab are the intensity of the fluorescence of the sample, control, and blank groups, respectively. The half-maximal inhibitory concentration (IC50) of the sample was calculated according to the DPP-IV inhibition activity against the concentrations of the sample. In addition, the type of inhibition of the sample was obtained from the Lineweaver–Burk equation and double reciprocal plots.

T1 sequence (P27487 whole entry): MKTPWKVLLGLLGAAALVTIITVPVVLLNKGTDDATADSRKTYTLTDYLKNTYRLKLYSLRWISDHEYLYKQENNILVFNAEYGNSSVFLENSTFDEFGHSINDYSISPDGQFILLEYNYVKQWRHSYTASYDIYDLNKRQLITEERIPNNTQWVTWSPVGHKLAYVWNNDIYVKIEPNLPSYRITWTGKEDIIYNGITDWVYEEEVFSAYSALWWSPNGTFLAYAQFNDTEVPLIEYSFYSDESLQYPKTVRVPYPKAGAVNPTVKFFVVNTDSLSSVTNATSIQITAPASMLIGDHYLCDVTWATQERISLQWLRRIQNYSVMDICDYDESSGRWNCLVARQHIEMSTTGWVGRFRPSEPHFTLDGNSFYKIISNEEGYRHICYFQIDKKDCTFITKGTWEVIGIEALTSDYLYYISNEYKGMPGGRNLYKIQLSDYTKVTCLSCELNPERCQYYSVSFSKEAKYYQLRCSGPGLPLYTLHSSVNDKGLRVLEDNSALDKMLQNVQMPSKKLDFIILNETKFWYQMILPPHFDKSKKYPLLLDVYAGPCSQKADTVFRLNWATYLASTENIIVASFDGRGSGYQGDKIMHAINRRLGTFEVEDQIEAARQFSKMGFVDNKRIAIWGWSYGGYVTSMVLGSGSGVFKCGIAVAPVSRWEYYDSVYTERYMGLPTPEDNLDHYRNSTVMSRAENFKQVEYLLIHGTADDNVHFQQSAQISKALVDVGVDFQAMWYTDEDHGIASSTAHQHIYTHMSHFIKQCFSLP

In order of falling inhibition at 25 µM:
1. CC(C)[C@H](N)C(=O)N[C@@H](C)C(=O)N[C@H](C(=O)N[C@H](C(=O)N1CCC[C@H]1C(=O)N[C@@H](Cc1ccccc1)C(=O)O)C(C)C)C(C)C [VAVVPF] (H-VAVVPF-OH)  42.9 ± 2.31%
2. CC(C)[C@H](N)C(=O)N1CCC[C@H]1C(=O)N[C@@H](CCC(N)=O)C(=O)N[C@@H](Cc1c[nH]cn1)C(=O)N[C@@H](Cc1ccc(O)cc1)C(=O)O [VPQHY] (H-VPQHY-OH)  40.5 ± 4.59%
3. CC(C)[C@H](N)C(=O)N[C@@H](C)C(=O)N[C@@H](CCC(=O)O)C(=O)N[C@H](C(=O)N1CCC[C@H]1C(=O)N[C@@H](Cc1ccccc1)C(=O)O)C(C)C [VAEVPF] (H-VAEVPF-OH)  33 ± 12.3%
4. O=C(N[C@@H](CS)C(=O)N1CCC[C@H]1C(=O)O)[C@H](Cc1c[nH]cn1)NC(=O)[C@@H]1CCCN1C(=O)[C@@H]1CCCN1 [PPHCP] (H-PPHCP-OH; N-terminus and C-terminus assumed)  4.42 ± 3.95%

Same assay, conditions: 50 μM

In order of rising inhibition at 50 µM:
1. O=C(N[C@@H](CS)C(=O)N1CCC[C@H]1C(=O)O)[C@H](Cc1c[nH]cn1)NC(=O)[C@@H]1CCCN1C(=O)[C@@H]1CCCN1 [PPHCP] (H-PPHCP-OH; N-terminus and C-terminus assumed)  29.9 ± 1.84%
2. CC(C)[C@H](N)C(=O)N[C@@H](C)C(=O)N[C@@H](CCC(=O)O)C(=O)N[C@H](C(=O)N1CCC[C@H]1C(=O)N[C@@H](Cc1ccccc1)C(=O)O)C(C)C [VAEVPF] (H-VAEVPF-OH)  43.4 ± 2.27%
3. CC(C)[C@H](N)C(=O)N[C@@H](C)C(=O)N[C@H](C(=O)N[C@H](C(=O)N1CCC[C@H]1C(=O)N[C@@H](Cc1ccccc1)C(=O)O)C(C)C)C(C)C [VAVVPF] (H-VAVVPF-OH)  61.5 ± 5.19%
4. CC(C)[C@H](N)C(=O)N1CCC[C@H]1C(=O)N[C@@H](CCC(N)=O)C(=O)N[C@@H](Cc1c[nH]cn1)C(=O)N[C@@H](Cc1ccc(O)cc1)C(=O)O [VPQHY] (H-VPQHY-OH)  69.3 ± 4.66%

Same assay, conditions: 100 μM

In order of rising inhibition at 100 µM:
1. CC(C)[C@H](N)C(=O)N[C@@H](C)C(=O)N[C@@H](CCC(=O)O)C(=O)N[C@H](C(=O)N1CCC[C@H]1C(=O)N[C@@H](Cc1ccccc1)C(=O)O)C(C)C [VAEVPF] (H-VAEVPF-OH)  58.2 ± 3.86%
2. O=C(N[C@@H](CS)C(=O)N1CCC[C@H]1C(=O)O)[C@H](Cc1c[nH]cn1)NC(=O)[C@@H]1CCCN1C(=O)[C@@H]1CCCN1 [PPHCP] (H-PPHCP-OH; N-terminus and C-terminus assumed)  58.9 ± 1.1%
3. CC(C)[C@H](N)C(=O)N[C@@H](C)C(=O)N[C@H](C(=O)N[C@H](C(=O)N1CCC[C@H]1C(=O)N[C@@H](Cc1ccccc1)C(=O)O)C(C)C)C(C)C [VAVVPF] (H-VAVVPF-OH)  66 ± 4.07%
4. CC(C)[C@H](N)C(=O)N1CCC[C@H]1C(=O)N[C@@H](CCC(N)=O)C(=O)N[C@@H](Cc1c[nH]cn1)C(=O)N[C@@H](Cc1ccc(O)cc1)C(=O)O [VPQHY] (H-VPQHY-OH)  78.8 ± 2.17%

Same assay, conditions: 200 μM

In order of rising inhibition at 200 µM:
1. CC(C)[C@H](N)C(=O)N[C@@H](C)C(=O)N[C@@H](CCC(=O)O)C(=O)N[C@H](C(=O)N1CCC[C@H]1C(=O)N[C@@H](Cc1ccccc1)C(=O)O)C(C)C [VAEVPF] (H-VAEVPF-OH)  74.2 ± 2.32%
2. CC(C)[C@H](N)C(=O)N[C@@H](C)C(=O)N[C@H](C(=O)N[C@H](C(=O)N1CCC[C@H]1C(=O)N[C@@H](Cc1ccccc1)C(=O)O)C(C)C)C(C)C [VAVVPF] (H-VAVVPF-OH)  78.9 ± 1.23%
3. O=C(N[C@@H](CS)C(=O)N1CCC[C@H]1C(=O)O)[C@H](Cc1c[nH]cn1)NC(=O)[C@@H]1CCCN1C(=O)[C@@H]1CCCN1 [PPHCP] (H-PPHCP-OH; N-terminus and C-terminus assumed)  81.35 ± 0.48%
4. CC(C)[C@H](N)C(=O)N1CCC[C@H]1C(=O)N[C@@H](CCC(N)=O)C(=O)N[C@@H](Cc1c[nH]cn1)C(=O)N[C@@H](Cc1ccc(O)cc1)C(=O)O [VPQHY] (H-VPQHY-OH)  87.25 ± 0.25%

Same assay, conditions: 400 μM

In order of rising inhibition at 400 µM:
1. CC(C)[C@H](N)C(=O)N[C@@H](C)C(=O)N[C@@H](CCC(=O)O)C(=O)N[C@H](C(=O)N1CCC[C@H]1C(=O)N[C@@H](Cc1ccccc1)C(=O)O)C(C)C [VAEVPF] (H-VAEVPF-OH)  86.2 ± 0.96%
2. CC(C)[C@H](N)C(=O)N[C@@H](C)C(=O)N[C@H](C(=O)N[C@H](C(=O)N1CCC[C@H]1C(=O)N[C@@H](Cc1ccccc1)C(=O)O)C(C)C)C(C)C [VAVVPF] (H-VAVVPF-OH)  87.99 ± 0.39%
3. O=C(N[C@@H](CS)C(=O)N1CCC[C@H]1C(=O)O)[C@H](Cc1c[nH]cn1)NC(=O)[C@@H]1CCCN1C(=O)[C@@H]1CCCN1 [PPHCP] (H-PPHCP-OH; N-terminus and C-terminus assumed)  89.29 ± 0.45%
4. CC(C)[C@H](N)C(=O)N1CCC[C@H]1C(=O)N[C@@H](CCC(N)=O)C(=O)N[C@@H](Cc1c[nH]cn1)C(=O)N[C@@H](Cc1ccc(O)cc1)C(=O)O [VPQHY] (H-VPQHY-OH)  94.3 ± 0.28%

Same assay, conditions: peptides, Gly-Pro-AMC substrate

In order of falling IC50:
1. CC(C)[C@H](N)C(=O)N[C@@H](C)C(=O)N[C@@H](CCC(=O)O)C(=O)N[C@H](C(=O)N1CCC[C@H]1C(=O)N[C@@H](Cc1ccccc1)C(=O)O)C(C)C [VAEVPF] (H-VAEVPF-OH)  65.3 ± 13.1 µM
2. CC(C)[C@H](N)C(=O)N[C@@H](C)C(=O)N[C@H](C(=O)N[C@H](C(=O)N1CCC[C@H]1C(=O)N[C@@H](Cc1ccccc1)C(=O)O)C(C)C)C(C)C [VAVVPF] (H-VAVVPF-OH)  33.9 ± 4.83 µM
3. CC(C)[C@H](N)C(=O)N1CCC[C@H]1C(=O)N[C@@H](CCC(N)=O)C(=O)N[C@@H](Cc1c[nH]cn1)C(=O)N[C@@H](Cc1ccc(O)cc1)C(=O)O [VPQHY] (H-VPQHY-OH)  30.8 ± 1.93 µM
